Experimental data from the supplement of paper PMC9912026.

System: A375_NRAS_Q61K_DOXind
Test: pERK immunofluorescence relative to doxycycline-induced cells with 1 uM vemurafenib alone; higher = more ERK phosphorylation (less pathway inhibition)
Conditions: drug treatment time 24 h, doxycycline 1000 ng/mL, doxycycline pre-induction time 24 h, vemurafenib background 1 µM
Method in brief: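 A375 cells with doxycycline-inducible FLAG-tagged mutant NRAS were given doxycycline or mock for 24 h. They then received two-drug dose combinations with a third drug held at 1 uM for 24 h. Fixed cells were stained for phospho-ERK T202/Y204 and imaged at 10× on an Operetta, with FLAG-negative cells excluded. The cytosolic population mean is normalised to induced cells given the 1 uM drug alone; the value is the mean of 2 technical replicates. pERK was measured by immunofluorescence with FLAG-negative cells excluded. Averages of 2 technical replicates.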

CNc1ncc2cc(-c3cc(NC(=O)NCCC(C)(C)C)c(F)cc3C)c(C)nc2n1 + O=C(c1ccc(F)c(F)c1Nc1ccc(I)cc1F)N1CC(O)([C@@H]2CCCCN2)C1 [Cobimetinib]
pERK immunofluorescence
Conditions	drug B concentration 0 µM	drug B concentration 0.0001 µM	drug B concentration 0.000316228 µM	drug B concentration 0.001 µM	drug B concentration 0.00316228 µM	drug B concentration 0.01 µM	drug B concentration 0.0316228 µM	drug B concentration 0.1 µM	drug B concentration 0.316228 µM	drug B concentration 1 µM
drug A concentration 0 µM	–	1.08	1.08	1.06	1.06	0.844	0.515	0.168	0.0479	0.0212
drug A concentration 0.000316228 µM	0.724	0.706	0.786	0.747	0.709	0.579	0.323	0.0754	0.026	0.0165
drug A concentration 0.001 µM	0.696	0.745	0.758	0.771	0.687	0.45	0.16	0.0453	0.0201	0.016
drug A concentration 0.00316228 µM	0.664	0.697	0.767	0.651	0.592	0.268	0.0865	0.0262	0.0166	0.0158
drug A concentration 0.01 µM	0.583	0.608	0.593	0.537	0.359	0.109	0.0388	0.0196	0.0161	0.0166
drug A concentration 0.0316228 µM	0.455	0.528	0.47	0.389	0.185	0.0635	0.0285	0.0172	0.0158	0.0155
drug A concentration 0.1 µM	0.306	0.31	0.287	0.187	0.0869	0.0387	0.0223	0.0174	0.0169	0.0168
drug A concentration 0.316228 µM	0.122	0.116	0.108	0.077	0.0399	0.0224	0.0172	0.0164	0.0168	0.017
drug A concentration 1 µM	0.0463	0.045	0.0414	0.0293	0.0209	0.0181	0.0173	0.0169	0.0172	0.0172
drug A concentration 3.16228 µM	0.0225	0.0225	0.0215	0.0203	0.0207	0.0173	0.0169	0.0175	0.0169	0.0164
drug A concentration 10 µM	0.0198	0.0196	0.0203	0.0186	0.0186	0.02	0.0189	0.0179	0.0182	0.0184
